The values below come from ChEMBL document CHEMBL1122322, “Synthesis and antileishmanial activity of 6-methoxy-4-methyl-N-[6-(substituted-1-piperazinyl)hexyl]-8-quinolinamines and related compounds” (1983).

For assay [1], the system named is Leishmania donovani. Put plainly: Antileishmanial activity against Leishmania donovani infections in hamsters (at 52 mg/kg). Format: functional.
The test system of assay [2] is Leishmania donovani. Put plainly: (§1) Antileishmanial activity against Leishmania donovani infections in hamsters (208 mg/kg). It counts as functional, organism-based.
Assay [3] has as its system Leishmania donovani. Put plainly: Antileishmanial activity against Leishmania donovani infections in hamsters (at 13 mg/kg). It counts as functional.
For assay [4], the system named is Leishmania donovani. Nature of the assay: Antileishmanial activity against Leishmania donovani infections in hamsters (0.2 mg/kg). Format: functional.
Assay [5] has as its system Leishmania donovani. Put plainly: Glucantime (meglumine antimoniate) index (G index) against Leishmania donovani infections in hamsters. Format: functional.
The subject of assay [6] is Leishmania donovani. Nature of the assay: Antileishmanial activity against Leishmania donovani infections in hamsters (0.81 mg/kg). It counts as functional.
The test system of assay [7] is Leishmania donovani. Put plainly: Antileishmanial activity against Leishmania donovani infections in hamsters (3.25 mg/kg). Format: functional.
The subject of assay [8] is Leishmania donovani. Nature of the assay: Antileishmanial activity against Leishmania donovani infections in hamsters (208 mg/kg): Inactive. It counts as functional, organism-based.
The test system of assay [9] is Leishmania donovani. The description is as §1. Format: functional.
Assay [10] relates to Leishmania donovani. Put plainly: Antileishmanial activity against Leishmania donovani infections in hamsters (0.05 mg/kg). It counts as functional.
Assay [11] concerns Leishmania donovani. Put plainly: Antileishmanial activity against Leishmania donovani infections in hamsters (3.25 mg/kg); NA means inactive. It counts as functional, organism-based.
The subject of assay [12] is Leishmania donovani. Put plainly: Antileishmanial activity against Leishmania donovani infections in hamsters (104 mg/kg). It counts as functional, organism-based.

Active and inactive are the calls of the source. The rule behind the calls is not given here.

For `COc1cc(NCCCCCCN2CCN(CC(O)CO)CC2)c2nccc(C)c2c1.Cl` (stereo not given), the Suppression was 99.9% in the assay on Leishmania donovani [1]; “Toxic” in the assay on Leishmania donovani [2]; 100% in the assay on Leishmania donovani [3]; 25.8% in the assay with Leishmania donovani [4]; 98.5% in the assay on Leishmania donovani [6]; 99.98% in the assay with Leishmania donovani [7]. In the assay with Leishmania donovani [5], this molecule returned a G index of 57.

With `COc1cc(NCCCCCCN2CCN(S(=O)(=O)c3ccccc3)c3ccccc32)c2nccc(C)c2c1`, the Suppression result in the assay on Leishmania donovani [8] was “inactive”.

Take `COc1cc(NCCCCCCN2CCN(c3ccccn3)CC2)c2nccc(C)c2c1`: the Suppression in the assay on Leishmania donovani [1] turned out to be 97.8%; in the assay on Leishmania donovani [3], 95.9%; in the assay on Leishmania donovani [9], 97.5%; in the assay with Leishmania donovani [6] it was 18.9%; with Leishmania donovani [7], 24.4%. The molecule also displayed a G index in the assay with Leishmania donovani [5] of 5.

Regarding `COc1cc(NCCCCCCN2CCN(CCOC(c3ccccc3)c3ccccc3)CC2)c2nccc(C)c2c1.Cl`, the Suppression in the assay on Leishmania donovani [1] turned out to be 99.5%; in the assay on Leishmania donovani [3], 83.5%; with Leishmania donovani [9] it was 100%. This molecule also had a G index with Leishmania donovani [5] of 5.

As to `CCS(=O)(=O)CCN1CCN(CCCCCCNc2cc(OC)cc3c(C)ccnc23)CC1`, the Suppression is reported as 99.5% in the assay with Leishmania donovani [1]; 99.7% in the assay on Leishmania donovani [3]; 99.9% in the assay on Leishmania donovani [9]; 21.1% in the assay with Leishmania donovani [6]; 99.6% with Leishmania donovani [7]. Also, the G index in the assay with Leishmania donovani [5] is reported as 19.

Take `COc1cc(NCCCCCCN2CCSCC2)c2nccc(C)c2c1.Cl`: the Suppression was 100% in the assay with Leishmania donovani [1]; “Toxic” in the assay with Leishmania donovani [2]; 99.8% with Leishmania donovani [3]; 27.61% with Leishmania donovani [6]; 59.9% in the assay on Leishmania donovani [7]. Also, in the assay on Leishmania donovani [5], the G index is listed as 6.4.

For `COc1cc(NCCCCCCN2CC(C)NC(C)C2)c2nccc(C)c2c1` (stereo not given), the Suppression in the assay on Leishmania donovani [1] is 100%; with Leishmania donovani [2], “Toxic”; with Leishmania donovani [3], 100%; in the assay with Leishmania donovani [4], 1.3%; in the assay on Leishmania donovani [6], 97.9%; in the assay with Leishmania donovani [7], 99.8%. Further, the G index in the assay on Leishmania donovani [5] was 72.

Take `COc1cc(NCCCCCCN2CCS(=O)(=O)CC2)c2nccc(C)c2c1`: the values for the Suppression in the assay with Leishmania donovani [1], with Leishmania donovani [3] and in the assay with Leishmania donovani [9] were 67.6%, 35% and 100%, respectively. For the same molecule, the G index in the assay with Leishmania donovani [5] turned out to be 0.5.

Regarding `CCOC(=O)N1CCN(CCCCCCNc2cc(OC)cc3c(C)ccnc23)CC1`, the Suppression with Leishmania donovani [1] worked out at 99.9%; with Leishmania donovani [3] it was 99.9%; in the assay with Leishmania donovani [9] it was 99.5%; with Leishmania donovani [6], 23.9%; with Leishmania donovani [7] it was 99.1%. Moreover, the G index with Leishmania donovani [5] worked out at 33.

As to `CCS(=O)(=O)N1CCN(CCCCCCNc2cc(OC)cc3c(C)ccnc23)CC1`, the Suppression with Leishmania donovani [1] was determined as 99.8%; in the assay on Leishmania donovani [3], 94.8%; in the assay with Leishmania donovani [9] it was 99.9%. In addition, the G index in the assay with Leishmania donovani [5] was 4.

With `COc1cc(NCCCCCCN2CC(C)OC(C)C2)c2nccc(C)c2c1.Cl` (stereo not given), the Suppression in the assay with Leishmania donovani [1] is 99.1%; in the assay with Leishmania donovani [2], “Toxic”; with Leishmania donovani [3], 99.1%; in the assay with Leishmania donovani [6], 61%; with Leishmania donovani [7], 98.7%. The molecule further registered a G index in the assay on Leishmania donovani [5] of 24.

`COc1cc(NCCCCCCN2CCN(CCC(C)C)CC2C)c2nccc(C)c2c1.Cl` (stereo not given): the Suppression is 99.8% in the assay with Leishmania donovani [1]; “Toxic” with Leishmania donovani [2]; 98.9% with Leishmania donovani [3]; 57.3% in the assay with Leishmania donovani [4]; 96.6% in the assay on Leishmania donovani [6]; 100% in the assay on Leishmania donovani [7]. Besides, in the assay on Leishmania donovani [5], the G index was found to be 72.

In the case of `COc1cc(NCCCCCCN2CCN(CCCCCCNc3cc(OC)cc4c(C)ccnc34)CC2)c2nccc(C)c2c1`, the Suppression result in the assay with Leishmania donovani [8] is “inactive”.

As to `COc1cc(NCCCCCCN2CCN(C3CCCCC3)CC2)c2nccc(C)c2c1`, the Suppression result with Leishmania donovani [8] was “inactive”.

For the molecule `COc1cc(NCCCCCCN2CCN(C)CC2)c2nccc(C)c2c1.Cl`, the Suppression turned out to be 100% with Leishmania donovani [1]; 99.7% with Leishmania donovani [3]; 99.7% in the assay with Leishmania donovani [9]; 64.7% in the assay on Leishmania donovani [6]; 99.3% in the assay with Leishmania donovani [7]. Further, the G index in the assay with Leishmania donovani [5] amounted to 26.

Turning to `COc1cc(NCCCCCCN2C[C@H](C)S[C@@H](C)C2)c2nccc(C)c2c1`, the Suppression with Leishmania donovani [1] was 65%; in the assay on Leishmania donovani [3], 21.4%; with Leishmania donovani [9], 98.2%. Further, in the assay with Leishmania donovani [5], the G index came out at 0.4.

As to `CCN(CC)CCCCCCNc1cc(OC)cc2c(C)ccnc12` [SITAMAQUINE], the Suppression in the assay on Leishmania donovani [10] is 83.7%; in the assay on Leishmania donovani [1] it was 100%; in the assay on Leishmania donovani [2] it was “Toxic”; in the assay on Leishmania donovani [3], 100%; in the assay on Leishmania donovani [4], 99.6%; in the assay with Leishmania donovani [6], 100%. In the assay with Leishmania donovani [5], this molecule registered a G index of 474.

For the molecule `COc1cc(NCCCCCCN2CCN(CC(C)O)CC2)c2nccc(C)c2c1.Cl` (stereo not given), the Suppression with Leishmania donovani [10] is 35%; in the assay on Leishmania donovani [1] it was 99.7%; in the assay on Leishmania donovani [2], “Toxic”; with Leishmania donovani [3] it was 99.1%; in the assay with Leishmania donovani [4] it was 75.7%; with Leishmania donovani [6] it was 99.8%. This molecule gave a Suppression with Leishmania donovani [7] of 99.4%. In the assay with Leishmania donovani [5], this molecule displayed a G index of 143.

Molecule `COc1cc(NCCCCCCN2CCN(c3ccc(Cl)c(Cl)c3)CC2)c2nccc(C)c2c1` displayed a Suppression in the assay on Leishmania donovani [9] of 77.8%. This molecule also registered a G index in the assay on Leishmania donovani [5] of under 1.

Regarding MEGLUMINE ANTIMONATE, the NA entry in the assay with Leishmania donovani [11] is “inactive”. Besides, the Suppression in the assay with Leishmania donovani [3] is 42%; in the assay with Leishmania donovani [12], 91.3%. The G index in the assay on Leishmania donovani [5] came out at 1.

For the molecule `COc1cc(NCCCCCCN2CCN(C(=O)N(c3ccccc3)c3ccccc3)CC2)c2nccc(C)c2c1`, the Suppression result in the assay with Leishmania donovani [8] is “inactive”.

For the molecule `CCCN(CCC)C(=O)N1CCN(CCCCCCNc2cc(OC)cc3c(C)ccnc23)CC1.Cl`, the figures for the Suppression in the assay with Leishmania donovani [1], in the assay on Leishmania donovani [3] and in the assay on Leishmania donovani [9] were 99.4%, 89.7% and 100%, respectively. In the assay on Leishmania donovani [5], the G index worked out at 6.

Turning to `COc1cc(NCCCCCCN2CCNc3ccccc32)c2nccc(C)c2c1`, the Suppression entry in the assay with Leishmania donovani [8] is “inactive”.

With `COc1cc(NCCCCCCN2CCCN(C)CC2)c2nccc(C)c2c1`, the Suppression with Leishmania donovani [1] is 99.4%; in the assay with Leishmania donovani [3] it was 99.8%; with Leishmania donovani [9], 98.6%; in the assay on Leishmania donovani [6], 61%; with Leishmania donovani [7] it was 91.2%. The molecule also showed a G index with Leishmania donovani [5] of 12.

As to `CCCCCCCCCCCCN1CCN(CCCCCCNc2cc(OC)cc3c(C)ccnc23)CC1`, the Suppression entry with Leishmania donovani [8] is “inactive”.

For `COc1cc(NCCCCCCN2CCN(C(=O)N3CCCC3)CC2)c2nccc(C)c2c1.Cl`, the Suppression in the assay on Leishmania donovani [1] turned out to be 99.8%; in the assay on Leishmania donovani [3], 100%; in the assay with Leishmania donovani [9], 100%; with Leishmania donovani [6], 4.6%; with Leishmania donovani [7] it was 98.8%. Further, in the assay with Leishmania donovani [5], the G index came out at 2.3.

Consider `CCC(CC)C(=O)N1CCN(CCCCCCNc2cc(OC)cc3c(C)ccnc23)CC1.Cl`, for which the Suppression amounted to 99.3% in the assay with Leishmania donovani [1], 56.6% with Leishmania donovani [3] and 98.6% with Leishmania donovani [9]. In the assay with Leishmania donovani [5], this molecule returned a G index of 2.6.
